According to patent US5830902A, “Quinuclidine derivative having tricyclic hetero condensed ring” (Yamanouchi Pharmaceutical Co., Ltd., priority 1995, dated 1998):
Structures can show the parent of a compound that is named as a salt. Where two headings read alike, the source gives them in different places.

Assays:
[1] = target: T1, human squalene synthase (Homo sapiens, UniProt P37268); assay: Test on human squalene synthase inhibition (HepG2 microsomal fraction); type: biochemical
T1 construct: endogenous in cells; host or cells: HepG2 human hepatoma cells (microsomal fraction)
T1 sequence (P37268 1-417): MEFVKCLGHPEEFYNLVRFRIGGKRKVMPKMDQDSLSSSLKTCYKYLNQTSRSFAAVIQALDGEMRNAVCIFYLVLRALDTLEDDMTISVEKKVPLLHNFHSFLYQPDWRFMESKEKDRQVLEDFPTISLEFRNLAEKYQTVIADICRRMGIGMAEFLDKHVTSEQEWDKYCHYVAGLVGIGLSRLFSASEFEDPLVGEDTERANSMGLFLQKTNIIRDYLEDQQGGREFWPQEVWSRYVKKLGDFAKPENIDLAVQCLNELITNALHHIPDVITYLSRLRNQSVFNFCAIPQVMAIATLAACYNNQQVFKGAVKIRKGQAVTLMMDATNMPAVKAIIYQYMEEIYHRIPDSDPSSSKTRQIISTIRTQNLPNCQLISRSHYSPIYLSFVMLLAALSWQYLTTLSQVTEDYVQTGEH
Protocol: A. Test on human squalene synthase inhibition
(1) Preparation of squalene synthase from human hepatoma cells
Human hepatoma cells (HepG2 cells) were cultured using DMEM containing 10% FBS until a single layer was formed, and then the medium was replaced by DMEM supplemented with 10% human lipoprotein deficient serum (LPDS) to carry out 24 hours of culturing. The cells were washed twice with PBS, collected using a Rubber Policeman and subjected to centrifugation. The resulting precipitate was homogenized in five volumes of 50 mM Hepes buffer (pH 7.5) containing 5 mM EDTA and centrifuged at 20,000×g for 15 minutes. The supernatant was again subjected to the same centrifugation. The supernatant was subjected to 1 hour of centrifugation at 100,000×g, and the microsomes obtained were suspended in the same buffer and used in the test as a HepG2 squalene synthase fraction.
(2) Measurement of squalene synthase inhibiting activity
A dimethyl sulfoxide solution of each drug to be tested was added to a solution of the squalene synthase fraction prepared above (protein 10 ng, 50 mM Hepes buffer (pH 7.5)), 11 mM NaF, 5.5 mM MgCl2, 3 mM DTT, 1 mM NADPH, 1 mM pyrophosphate and 2.5 μM ^3 H-FPP, and the mixture was adjusted to a total volume of 0.2 ml and shaken at 30° C. for 20 minutes to effect the reaction. The reaction was terminated by adding 100 μl of 20% potassium hydroxide-50% ethanol solution, and the reaction solution was heated at 65° C. for 30 minutes. The un-saponified material was extracted with petroleum ether, and 1/3 volume thereof was subjected to measurement by a liquid scintillation counter. The ^3 H radioactivity of the un-saponified material was regarded as products down stream of squalene in the cholesterol biosynthesis system, and the squalene synthase inhibiting action was calculated by comparing ^3 H radioactivities of the test group and control group.
In addition, concentration of each compound of the present invention to inhibit 50% of squalene synthase (IC50 value) was obtained by calculation.

[2] = Cholesterol lowering action in hamster; type: in vivo; conditions: male golden hamsters; 50 mg/kg in 0.5% methyl cellulose, administered by force; 5 days; blood 2 hours after final administration
Protocol: C. Cholesterol lowering action in hamster
Male golden hamsters (130 to 150 g) which have been treated by reversing night and day since 12 or more days before the commencement of administration were divided into groups 4 days before the administration in such a manner that the cholesterol value became the same among the groups. Each drug was prepared as a 0.5% methyl cellulose solution and administered by force in a dosage of 50 mg/kg. In this case, the liquid volume was 10 ml/kg.
The administration was carried out continuously for 4 days at around A.M. 11:00 under satiated condition and then on the fifth day after 16 hours of fasting. After 2 hours of the final administration, blood samples were collected from the abdominal vena cava under diethyl ether anesthesia and their cholesterol values were measured using an automatic analyzer (Hitachi 736).

[3] = test system: enzyme located at a downstream stage of the cholesterol biosynthesis system; conditions: background art; cited from earlier work

SMILES	IC50 [1]	Lowering ratio (cholesterol) [2]	IC50 ([1]; squalene synthase derived from human hepatoma (HepG2) cells, 2.5 μM 3H-FPP, 30° C., 20 minutes, read-out: IC50 value of squalene synthase inhibiting activity)	desmosterol accumulation / cataracts [3]
CN1c2ccccc2Sc2cc(COC3CN4CCC3CC4)ccc21.Cl (stereo not shown) [Example 17, 3-(10-Methylphenothiazin-3-ylmethoxy)quinuclidine hydrochloride]	85 nM	46%		
F/C(COc1ccc2c(c1)[nH]c1ccccc12)=C1/CN2CCC1CC2 [Example 1, (E)-3-[2-(Carbazol-2-yloxy)-1-fluoroethylidene]quinuclidine hydrochloride]		57%	79 nM	
CCN(CC)CCOc1ccc(C(O)(Cc2ccc(Cl)cc2)c2ccc(C)cc2)cc1 (stereo not shown) [triparanol]				accumulates desmosterol which causes the cataracts
C(/COc1ccc2c(c1)[nH]c1ccccc12)=C1/CN2CCC1CC2.Cl [Example 2, (Z)-3-[2-(Carbazol-2-yloxy)ethylidene]quinuclidine hydrochloride]	59 nM	39%		
